The nature of series [1]: Inhibition of human N-terminal GST-tagged PDE4D7 (2 to 748 residues) expressed in baculovirus infected Sf9 cells using cAMP as substrate after 1 hr by fluorescence polarization assay. (In general: Polarisation of emitted light reports the rotation of a fluorescent probe.)
Series [2] concerns the target T1, 3',5'-cyclic-AMP phosphodiesterase 4B (Homo sapiens, UniProt Q07343). The experiment in a line: Inhibition of human full length N-terminal GST-tagged PDE4B1 expressed in baculovirus infected Sf9 cells using cAMP as substrate incubated for 1 hr by fluorescence polarization assay.
Series [3] has as its target T1, 3',5'-cyclic-AMP phosphodiesterase 4B. The experiment in a line: Inhibition of human full length N-terminal GST-tagged PDE4B1 expressed in baculovirus infected Sf9 cells using cAMP as substrate incubated for 1 hr by fluorescence polarization assay relative to control.
Series [4] concerns SH-SY5Y. The experiment in a line: Neuroprotective activity in human SH-SY5Y cells assessed as reduction in MPP+ induced cytotoxicity at 30 to 60 uM preincubated for 1 hr followed by MPP+ addition and measured after 48 hrs by MTT assay. The series is classed as functional, cell-based. Background: Formazan colour is commonly taken as a measure of viable cells.
In series [5] the test system is SH-SY5Y. The experiment in a line: Cytotoxicity against human SH-SY5Y cells assessed as reduction in cell viability at 3.1 to 50 uM incubated for 48 hrs by MTT assay. The series is classed as cell-based.
The test system of series [6] is SH-SY5Y. The experiment in a line: Neuroprotective activity against MPP+-induced cell apoptosis in human SH-SY5Y cells assessed as effect on morphological changes at 30 to 60 uM preincubated for 1 hr followed by MPP+ addition and measured after 48 hrs by PI staining based inverse fluorescent microscopic analysis. It is filed as functional.
Series [7] in a line: Tmax in Sprague-Dawley rat at 2 mg/kg, iv by measured up to 24 hrs by LC-MS /MS analysis. The series is classed as ADME, organism-based. Particulars: in vivo.
Series [8] is described as follows: Cmax in Sprague-Dawley rat at 2 mg/kg, iv by measured up to 24 hrs by LC-MS /MS analysis. The series is classed as ADME, organism-based. Particulars: in vivo. Also noted: dose 2 mg/kg, route intravenous.
Series [9] in a line: Tmax in Sprague-Dawley rat at 10 mg/kg, po by measured up to 24 hrs by LC-MS /MS analysis. It is filed as ADME, organism-based. Particulars: in vivo.
Series [10] can be described thus: AUC (0 to t) in Sprague-Dawley rat at 2 mg/kg, iv by measured up to 24 hrs by LC-MS /MS analysis. It is filed as ADME, organism-based. Further details: dose 2 mg/kg, time < 24 hr, route intravenous. As to conditions: in vivo.
Series [11] is described as follows: AUC (0 to infinity) in Sprague-Dawley rat at 2 mg/kg, iv by measured up to 24 hrs by LC-MS /MS analysis. It is filed as ADME, organism-based. Also noted: dose 2 mg/kg, time infinity, route intravenous. As to conditions: in vivo.
Series [12] in a line: Mean residence time (0 to infinity) in Sprague-Dawley rat at 2 mg/kg, iv by measured up to 24 hrs by LC-MS /MS analysis. As to conditions: in vivo. It is filed as ADME, organism-based.
A short description of series [13]: Oral bioavailability in Sprague-Dawley rat at 10 mg/kg by measured up to 24 hrs by LC-MS /MS analysis. The series is classed as ADME, organism-based. As to conditions: in vivo.
Series [14] can be described thus: Half life in Sprague-Dawley rat at 10 mg/kg, po by measured up to 24 hrs by LC-MS /MS analysis. It is filed as ADME, organism-based. As to conditions: in vivo.
Series [15] can be described thus: AUC (0 to infinity) in Sprague-Dawley rat at 10 mg/kg, po by measured up to 24 hrs by LC-MS /MS analysis. Also noted: dose 10 mg/kg, time infinity, route oral. Particulars: in vivo. The series is classed as ADME, organism-based.
Series [16] in a line: Clearance in Sprague-Dawley rat at 2 mg/kg, iv by measured up to 24 hrs by LC-MS /MS analysis. The series is classed as ADME, organism-based. As to conditions: in vivo.
Series [17] can be described thus: Mean residence time (0 to infinity) in Sprague-Dawley rat at 10 mg/kg, po by measured up to 24 hrs by LC-MS /MS analysis. It is filed as ADME, organism-based. As to conditions: in vivo.
Series [18] can be described thus: Volume of distribution at steady state in Sprague-Dawley rat at 2 mg/kg, iv by measured up to 24 hrs by LC-MS /MS analysis. It is filed as ADME, organism-based. As to conditions: in vivo, read-out: Vdss.
A short description of series [19]: Half life in Sprague-Dawley rat at 2 mg/kg, iv by measured up to 24 hrs by LC-MS /MS analysis. The series is classed as ADME, organism-based. Particulars: in vivo.
Series [20] is described as follows: Cmax in Sprague-Dawley rat at 10 mg/kg, po by measured up to 24 hrs by LC-MS /MS analysis. The series is classed as ADME, organism-based. Further details: dose 10 mg/kg, route oral. Particulars: in vivo.
The nature of series [21]: AUC (0 to t) in Sprague-Dawley rat at 10 mg/kg, po by measured up to 24 hrs by LC-MS /MS analysis. It is filed as ADME, organism-based. Further details: time < 24 hr, dose 10 mg/kg, route oral. As to conditions: in vivo.

The values that follow come from ChEMBL document CHEMBL4390657, “Discovery of arylbenzylamines as PDE4 inhibitors with potential neuroprotective effect” (Eur J Med Chem, 2019).

SMILES strings stand for the structures. Active and inactive are the calls of the source. The calls are words filed in the database; no cut-off is given here.

T1 sequence (Q07343 whole entry): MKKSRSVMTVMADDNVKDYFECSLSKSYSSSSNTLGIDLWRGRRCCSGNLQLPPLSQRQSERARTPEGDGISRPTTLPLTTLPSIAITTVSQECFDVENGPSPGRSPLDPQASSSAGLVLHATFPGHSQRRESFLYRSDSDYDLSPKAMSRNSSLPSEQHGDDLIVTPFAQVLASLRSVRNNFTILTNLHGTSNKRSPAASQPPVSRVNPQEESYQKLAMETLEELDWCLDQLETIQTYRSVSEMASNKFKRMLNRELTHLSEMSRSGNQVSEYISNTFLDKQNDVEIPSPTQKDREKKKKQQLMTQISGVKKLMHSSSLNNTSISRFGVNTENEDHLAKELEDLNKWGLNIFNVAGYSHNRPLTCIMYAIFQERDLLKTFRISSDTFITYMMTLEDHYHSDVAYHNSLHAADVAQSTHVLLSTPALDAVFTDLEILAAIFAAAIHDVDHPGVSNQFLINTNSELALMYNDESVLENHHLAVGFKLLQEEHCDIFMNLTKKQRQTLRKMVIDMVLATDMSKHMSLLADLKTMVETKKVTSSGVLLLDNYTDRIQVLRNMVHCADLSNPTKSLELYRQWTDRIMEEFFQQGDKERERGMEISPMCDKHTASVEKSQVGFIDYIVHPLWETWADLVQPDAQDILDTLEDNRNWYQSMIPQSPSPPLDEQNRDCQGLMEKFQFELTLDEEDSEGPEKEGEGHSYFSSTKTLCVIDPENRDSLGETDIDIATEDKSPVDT

For the molecule `COc1ccc(CN2CCOCC2)cc1-c1cccc(F)c1`, the IC50 in [1] came to 2100 nM; in series [2], 3700 nM.
On to `O=C(Nc1ccccc1Cl)c1ccc(OC(F)F)c(OCC2CC2)c1`, for which the half-inhibitory concentration (IC50) stood at 40 nM in [1] and 170 nM in series [2].
Turning to `COc1ccc(CNc2cccc(N(C)C)c2)cc1-c1cccc(Cl)c1`, the IC50 in series [1] and in [2] was over 100000 nM throughout.
As to `Fc1cccc(-c2cc(CNc3cccnc3)cc3c2OCC3)c1`, the figures for the IC50 in series [1] and in [2] were 1280 nM and 790 nM, respectively.
Consider `COc1ccc(NCc2ccc(OC)c(-c3cccc(Cl)c3)c2)cc1`, for which the IC50 in series [1] and in series [2] was over 10000 nM throughout.
Take `COc1ccc(CN[C@@H](Cc2c[nH]c3ccccc23)C(=O)O)cc1-c1cccc(Cl)c1`: the IC50 in [1] and in series [2] was over 100000 nM throughout.
For the molecule `COc1ccc(CN[C@@H](Cc2ccccc2)C(=O)O)cc1-c1cccc(Cl)c1`, the IC50 in series [1] and in series [2] was over 10000 nM each time.
On to `FC(F)Oc1ccc(CN2CCOCC2)cc1-c1cccc(Cl)c1`, for which the results for the IC50 in series [1] and in [2] were 2100 nM and 4100 nM, respectively.
For `Clc1cccc(-c2cc(CNc3cccnc3)cc3c2OCC3)c1`, the IC50 in [1] worked out at 1310 nM; in series [2], 940 nM.
The like results for `FC(F)Oc1ccc(CNc2cccnc2)cc1-c1cccc(Cl)c1` were, in that order, over 10000 nM and over 10000 nM.
In the case of `COc1ccc(CN2CCCC(C)C2)cc1-c1cccc(Cl)c1` (centres undefined), the IC50 in [1] and in series [2] was over 10000 nM throughout.
Turning to `COc1ccc(CNc2cccnc2)cc1-c1cccc(Cl)c1`, the IC50 was determined as 1200 nM in series [1] and 2300 nM in series [2]. In [3], this molecule showed an Imax of 100%.
Regarding `COc1ccc(CNc2ccc(Cl)cc2)cc1-c1cccc(Cl)c1`, the IC50 in series [1] and in series [2] was over 10000 nM in each case.
As to `COc1ccc(CNc2ccccn2)cc1-c1cccc(Cl)c1`, the IC50 in series [1] and in series [2] was over 10000 nM in each case.
`COc1ccc(C2CNC(=O)C2)cc1OC1CCCC1` (centres undefined) [ROLIPRAM] returned an IC50 in series [1] of 300 nM.
For `COc1ccc(CN2CCC(O)CC2)cc1-c1cccc(Cl)c1`, the IC50 in series [1] and in [2] was over 10000 nM throughout.
Regarding `COc1ccc(CN2CCOCC2)cc1-c1cccc(Cl)c1`, the IC50 in [1] was found to be 1800 nM; in series [2], 3500 nM.
As to `COc1cccc(-c2cc(CNc3cccnc3)ccc2OC)c1`, the outcome in the series on SH-SY5Y [4] and in the series on SH-SY5Y [6] was Active. Besides, the Activity entry in the series with SH-SY5Y [5] is “Non-Toxic”. In addition, the IC50 was 1200 nM in series [1] and 680 nM in series [2]. In [3], this molecule came in with an Imax of 90%.
For `COc1ccc(CN[C@H](C(=O)O)C(C)C)cc1-c1cccc(Cl)c1`, the concentration for half-maximal inhibition (IC50) in series [1] and in series [2] was over 100000 nM each time.
Consider `COc1ccc(NCc2ccc(OC)c(-c3cccc(Cl)c3)c2)cn1`, for which the IC50 in series [1] and in [2] was over 10000 nM throughout.
Consider `COC(=O)c1ccc(NCc2ccc(OC)c(-c3cccc(Cl)c3)c2)cc1`, for which the IC50 in series [1] and in series [2] was over 10000 nM each time.
With `COc1ccc(CNc2cccnc2)cc1-c1cccc(F)c1`, the Tmax was determined as 4.8 min in series [7] and 3.33 h in series [9]. Also, the outcome with SH-SY5Y [4] and in the series with SH-SY5Y [6] was Active. Besides, in the series with SH-SY5Y [5], the Activity entry is given as “Non-Toxic”. For the same molecule, the Cmax in [8] was determined as 701 ng/mL; in series [20], 14.7 ng/mL. The results for the IC50 in series [1] and in series [2] were 380 nM and 340 nM, respectively. Moreover, the AUC(0-t) at 24 h turned out to be 325 ng·h/mL in series [10] and 84.4 ng·h/mL in [21]. In addition, the AUC(0-inf) amounted to 327 ng·h/mL in series [11] and 134 ng·h/mL in [15]. Moreover, the Imax in [3] was 93%. Further, the MRT inf in series [12] came to 0.69 h; in [17] it was 7.61 h. In addition, the bioavailability in series [13] was 8.2%. The half-life in [14] was 4.32 h; in series [19], 1.26 h. This molecule had a clearance in series [16] of 103 mL/min/kg. Also, in series [18], the Vd worked out at 4.35 L/kg.
In the case of `COc1ccc(CNc2ccc(F)cc2)cc1-c1cccc(Cl)c1`, the IC50 in series [1] and in series [2] was over 10000 nM each time.

By IC50 is commonly meant the concentration at which inhibition is half-maximal. The low end stands for higher potency, the high end for lower potency. The term Tmax denotes the time at which the peak concentration occurs. One may read the Cmax as the maximum level reached in the sampled fluid or tissue. As usually defined, the AUC(0-t) is exposure summed from dosing to a finite time, without extrapolation to infinity. As usually defined, the AUC(0-inf) is total exposure, with the tail of the curve extrapolated. Lower therefore signals low exposure. One may read the MRT inf as the average time that molecules of a dose stay in the body. One may read the bioavailability as the share of a dose that reaches the circulation, judged against a reference dose that is usually intravenous. As a reminder, the half-life is how long it takes for the measured level to halve. A low value points to rapid decline. What is called clearance is a measure of how efficiently the substance is removed, as volume per time. A high value points to efficient removal.
